Results as given in patent US4517311A, “2'-Substituted-spiro[benzofuran-2(3H),1'-cycloalkanes] and their analgesic and anti-depressant compositions” (Hoechst-Roussel Pharmaceuticals Inc., priority 1982, dated 1985).
Counter-ions that a name gives are not always drawn. Like-named read-outs stand apart in the source and are kept apart here.

Experiments:
[1] = test system: tetrabenazine-induced depression in mice; assay: Antidepressant activity (inhibition of tetrabenazine induced ptosis / tetrabenazine-induced depression); assay type: in vivo; conditions: for ED50: Mus musculus
Method: (§1) The antidepressant and analgesic activities of various spiro compounds having the formula [drawing 32] where X is hydrogen, chlorine or bromine and m is 1 or 2, taken as representative of a lower class of compounds having the formula I are presented in Table 1. The data presented therein were determined in accordance with the above described procedures.
1. Antidepressant activity (as measured by inhibition of
tetrabenazine induced ptosis).
3. Anti-depressant activity (as measured by inhibition
tetrabenazine induced ptosis)

[2] = test system: phenylquinone writhing in mice; assay: Analgesic activity (phenylquinone writhing test); assay type: in vivo, male, CD-1 mice; conditions: for ED50: Mus musculus, sc, Table 1 part 2, estimated by computer linear regression analysis; for % Inhibition (analgesic activities, phenylquinone writhing test): 20 mg/kg, subcutaneously (sc), Table 1 part 4
Method: This produces a characteristic "writhe" which is defined as an inward rotation of one or more feet with twisting and turning of the trunk, drawing in of the abdominal wall, lordosis and arching of the back.
A total of 28 male, CD-1 mice (18 to 30 grams) are employed for a time response. Animals receive food and water ad libitum. Drugs to be tested are prepared with distilled water, and if insoluble, one drop of a suitable surfactant is added.
Twenty animals (5/group) are administered the drug subcutaneously (sc) 15, 30, 45 and 60 minutes prior to phenylquinone injection. Control animals (2/group) receive an equal amount of vehicle. After the administration of phenylquinone, the mice are placed separately into one-liter beakers and 5 minutes are allowed to elapse. The mice are then observed for a period of 10 minutes and the number of writhes are recorded for each animal. The formula for computing percent inhibition is: [formula]
The time period with the greatest percent of inhibition is considered the peak time.
A dose range is run in the same fashion as a time response except ten animals per group are tested at the peak time of drug activity. Fifty animals, four drug groups, and a vehicle control are employed. Animals are dosed and tested in a randomized manner. An estimated ED50 is calculated by a computer linear regression analysis.
as §1
2. Analgesic activities (as measured in the
phenylquinone writhing test).

[3] = po, Table 1 part 1, read-out: ED50 (antidepressant activity, inhibition of tetrabenazine induced ptosis)

Structure (SMILES) | ED50 [1, 3] | other results
CN(C)C[C@@H]1CCCC[C@]12Cc1c(Cl)cccc1O2 (relative stereo) [4-chloro Me trans 1, (1'α2'β)-2'-Dimethylaminomethylspiro[4-chlorobenzofuran-2(3H),1'-cyclohexane]Hydrochloride] | 5.7 mg/kg | 
CN(C)C[C@@H]1CCCC[C@@]12Cc1cc(Cl)c(Cl)cc1O2 (relative stereo) [5,6-dichloro Me cis 1, (1'β,2'β)-2'-Dimethylaminomethylspiro[5,6-dichlorobenzofuran-2(3H),1'-cyclohexane]Hydrochloride] | 3.46 mg/kg | 
CN(C)C[C@@H]1CCCC[C@@]12Cc1cc(Br)ccc1O2 (relative stereo) [5-bromo Me cis 1, (1'β,2'β)-2'-Dimethylaminomethylspiro[5-bromobenzofuran-2(3H),1'-cyclohexane]Hydrochloride] | 4.73 mg/kg | 
CCN(CC)C[C@@H]1CCCC[C@@]12Cc1cc(Cl)ccc1O2 (relative stereo) [5-chloro Et cis 1, (1'β,2'β)-2'-Diethylaminomethylspiro[5-chlorobenzofuran-2(3H),1'-cyclohexane]Hydrochloride] | 4.73 mg/kg | 
CN(C)C[C@@H]1CCCC[C@@]12Cc1cc(Cl)ccc1O2 (relative stereo) [5-chloro Me cis 1, (1'β,2'β)-2'-Dimethylaminomethylspiro[5-chlorobenzofuran-2(3H),1'-cyclohexane]Hydrochloride] | 1.5 mg/kg | ED50 [2]: 4.96 mg/kg
CN(C)C[C@@H]1CCCC[C@]12Cc1cc(Cl)ccc1O2 (relative stereo) [5-chloro Me trans 1, (1'α,2'β)-2'-Dimethylaminomethylspiro[5-chlorobenzofuran-2(3H),1'-cyclohexane]Hydrochloride] | 1.39 mg/kg | 
CN(C)C[C@@H]1CCCC[C@]12Cc1ccc(Cl)cc1O2 (relative stereo) [6-chloro Me trans 1, (1'α,1'β)-2'-Dimethylaminomethylspiro[6-chlorobenzofuran-2(3H),1'-cyclohexane]Hydrochloride] | 0.42 mg/kg | 
CN(C)C[C@@H]1CCC[C@@]12Cc1cc(Br)ccc1O2 (relative stereo) [(1'β,2'β)-2'-dimethylaminomethylspiro[5-bromobenzofuran-2(3H),1'-cyclopentane]hydrochloride] |  | ED50 ([1]; (po) [orally], Table 1 part 3, read-out: 50% Inhibition (ED50), anti-depressant activity, inhibition of tetrabenazine induced ptosis): 17.3 mg/kg; % Inhibition (analgesic activities, phenylquinone writhing test) [2]: 53%
CN(C)C[C@@H]1CCC[C@@]12Cc1cc(Cl)ccc1O2 (relative stereo) [(1'β,2'β)-2'-dimethylaminomethylspiro[5-chlorobenzofuran-2(3H),1'-cyclopentane]hydrochloride] |  | % Inhibition (analgesic activities, phenylquinone writhing test) [2]: 40%
CN(C)C[C@@H]1CCC[C@@]12Cc1ccccc1O2 (relative stereo) [(1'β,2'β)-2'-dimethylaminomethylspiro[benzofuran-2(3H),1'-cyclopentane]hydrochloride] |  | % Inhibition (anti-depressant activity, inhibition of tetrabenazine induced ptosis) ([1]; 20 mg/kg intraperitoneal, Table 1 part 3): 53%; % Inhibition (analgesic activities, phenylquinone writhing test) [2]: 37%
CN(C)C[C@@H]1CCCC[C@@]12Cc1ccccc1O2 (relative stereo) [H Me cis 1, (1'β,2'β)-2'-Dimethylaminomethylspiro[benzofuran-2(3H),1'-cyclohexane]Hydrochloride] |  | ED50 [2]: 5.98 mg/kg
CN(C)C[C@@H]1CCCC[C@]12Cc1ccccc1O2 (relative stereo) [H Me trans 1, (1'β,2'β)-2'-Dimethylaminomethylspiro[benzofuran-2(3H),1'-cyclohexane]Hydrochloride] | 3 mg/kg | ED50 [2]: 2.9 mg/kg
